Reference: the supplement of paper PMC11451515

Test system: SEM cells
Assay: cell viability relative to DMSO control; higher = less cytotoxic
Settings: 48 h
Outline: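 Viability, reported as a per-plate percentage of DMSO wells with cell-free wells as background, came from CellTiter-Glo One luminescence. Reading took place after 48 h at 37°C. Before that, NOMO1 or SEM (500 cells/well) or P12-Ichikawa (1000 cells/well) leukemia cells, adapted for at least four passages in each medium, were seeded in 1536-well plates (5 μl) and pin-dosed with library compounds in DMSO, 47 μM to 0.79 nM over 11 threefold points.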

[1] = HPLM + 10% dialyzed FBS, 0.000781 µM
[2] = HPLM + 10% dialyzed FBS, 0.00234 µM
[3] = HPLM + 10% dialyzed FBS, 0.00702 µM
[4] = HPLM + 10% dialyzed FBS, 0.0211 µM
[5] = HPLM + 10% dialyzed FBS, 0.0632 µM
[6] = HPLM + 10% dialyzed FBS, 0.19 µM
[7] = HPLM + 10% dialyzed FBS, 0.569 µM
[8] = HPLM + 10% dialyzed FBS, 1.71 µM
[9] = HPLM + 10% dialyzed FBS, 5.12 µM
[10] = HPLM + 10% dialyzed FBS, 15.4 µM
[11] = HPLM + 10% dialyzed FBS, 46.1 µM
[12] = RPMI 5 mM glucose + 10% FBS, 0.000781 µM
[13] = RPMI 5 mM glucose + 10% FBS, 0.00234 µM
[14] = RPMI 5 mM glucose + 10% FBS, 0.00702 µM
[15] = RPMI 5 mM glucose + 10% FBS, 0.0211 µM
[16] = RPMI 5 mM glucose + 10% FBS, 0.0632 µM
[17] = RPMI 5 mM glucose + 10% FBS, 0.19 µM
[18] = RPMI 5 mM glucose + 10% FBS, 0.569 µM
[19] = RPMI 5 mM glucose + 10% FBS, 1.71 µM
[20] = RPMI 5 mM glucose + 10% FBS, 5.12 µM
[21] = RPMI 5 mM glucose + 10% FBS, 15.4 µM
[22] = RPMI 5 mM glucose + 10% FBS, 46.1 µM
[23] = RPMI 5 mM glucose + 10% dialyzed FBS, 0.000781 µM
[24] = RPMI 5 mM glucose + 10% dialyzed FBS, 0.00234 µM
[25] = RPMI 5 mM glucose + 10% dialyzed FBS, 0.00702 µM
[26] = RPMI 5 mM glucose + 10% dialyzed FBS, 0.0211 µM
[27] = RPMI 5 mM glucose + 10% dialyzed FBS, 0.0632 µM
[28] = RPMI 5 mM glucose + 10% dialyzed FBS, 0.19 µM
[29] = RPMI 5 mM glucose + 10% dialyzed FBS, 0.569 µM
[30] = RPMI 5 mM glucose + 10% dialyzed FBS, 1.71 µM
[31] = RPMI 5 mM glucose + 10% dialyzed FBS, 5.12 µM
[32] = RPMI 5 mM glucose + 10% dialyzed FBS, 15.4 µM
[33] = RPMI 5 mM glucose + 10% dialyzed FBS, 46.1 µM

CC(=O)O[C@@]1(CC[C@H]2[C@@H]3\C=C(C)/C4=C/C(=O)CC[C@]4(C)[C@H]3CC[C@]12C)C(C)=O
cell viability [1]: 79.1% | cell viability [2]: 80% | cell viability [3]: 82% | cell viability [4]: 82.7% | cell viability [5]: 105% | cell viability [6]: 99.4% | cell viability [7]: 95.8% | cell viability [8]: 99.2% | cell viability [9]: 108% | cell viability [10]: 98.4% | cell viability [11]: 104% | cell viability [12]: 89.3% | cell viability [13]: 83.8% | cell viability [14]: 86.7% | cell viability [15]: 97.6% | cell viability [16]: 93.5% | cell viability [17]: 101% | cell viability [18]: 100% | cell viability [19]: 104% | cell viability [20]: 95% | cell viability [21]: 106% | cell viability [22]: 99.7% | cell viability [23]: 96.5% | cell viability [24]: 96.7% | cell viability [25]: 104% | cell viability [26]: 109% | cell viability [27]: 101% | cell viability [28]: 100% | cell viability [29]: 107% | cell viability [30]: 115% | cell viability [31]: 96.2% | cell viability [32]: 108% | cell viability [33]: 81.7%

NC(CO)(CO)CCc1ccc(Sc2cccc(OCc3ccccc3)c2)cc1Cl
cell viability [1]: 89.6% | cell viability [2]: 95.8% | cell viability [3]: 95.2% | cell viability [4]: 56.6% | cell viability [5]: 99.1% | cell viability [6]: 121% | cell viability [7]: 6.82% | cell viability [8]: 72.9% | cell viability [9]: 103% | cell viability [10]: 53.9% | cell viability [11]: 6.98% | cell viability [12]: 82.7% | cell viability [13]: 99% | cell viability [14]: 94.9% | cell viability [15]: 49.6% | cell viability [16]: 104% | cell viability [17]: 114% | cell viability [18]: 7.12% | cell viability [19]: 67.1% | cell viability [20]: 91.7% | cell viability [21]: 34.3% | cell viability [22]: 7.48% | cell viability [23]: 80.3% | cell viability [24]: 105% | cell viability [25]: 99.6% | cell viability [26]: 85.2% | cell viability [27]: 111% | cell viability [28]: 124% | cell viability [29]: 8.44% | cell viability [30]: 60.7% | cell viability [31]: 105% | cell viability [32]: 45.6% | cell viability [33]: 13.2%

C1CCC(C(CC2CCCCN2)C2CCCCC2)CC1 (configuration not stated)
cell viability [1]: 82.6% | cell viability [2]: 92.2% | cell viability [3]: 94.9% | cell viability [4]: 98.3% | cell viability [5]: 104% | cell viability [6]: 110% | cell viability [7]: 93.5% | cell viability [8]: 96.9% | cell viability [9]: 118% | cell viability [10]: 54.1% | cell viability [11]: 7.7% | cell viability [12]: 94.4% | cell viability [13]: 122% | cell viability [14]: 93% | cell viability [15]: 113% | cell viability [16]: 116% | cell viability [17]: 117% | cell viability [18]: 110% | cell viability [19]: 112% | cell viability [20]: 111% | cell viability [21]: 45.1% | cell viability [22]: 19.6% | cell viability [23]: 85.7% | cell viability [24]: 93.9% | cell viability [25]: 91.7% | cell viability [26]: 85.5% | cell viability [27]: 100% | cell viability [28]: 86.6% | cell viability [29]: 96.8% | cell viability [30]: 110% | cell viability [31]: 89.9% | cell viability [32]: 37.7% | cell viability [33]: 34%

CC1(C)CCC(=C(CN2CCN(CC2)C3=CC=C(C=C3)C(=O)N[S+]([O-])(=O)C4=CC(=C(N[C@H](CCN5CCOCC5)CSC6=CC=CC=C6)C=C4)[S+]([O-])(=O)C(F)(F)F)\C1)/C7=CC=C(Cl)C=C7
cell viability [1]: 124% | cell viability [2]: 124% | cell viability [3]: 126% | cell viability [4]: 106% | cell viability [5]: 80.9% | cell viability [6]: 18.3% | cell viability [7]: 11.3% | cell viability [8]: 8.83% | cell viability [9]: 8.56% | cell viability [10]: 7.32% | cell viability [11]: 5.38% | cell viability [12]: 85.5% | cell viability [13]: 108% | cell viability [14]: 95.9% | cell viability [15]: 82.8% | cell viability [16]: 42.1% | cell viability [17]: 19.6% | cell viability [18]: 8.77% | cell viability [19]: 6.49% | cell viability [20]: 5.65% | cell viability [21]: 5.78% | cell viability [22]: 4.31% | cell viability [23]: 111% | cell viability [24]: 135% | cell viability [25]: 100% | cell viability [26]: 102% | cell viability [27]: 49.6% | cell viability [28]: 21% | cell viability [29]: 9.94% | cell viability [30]: 6.79% | cell viability [31]: 6.8% | cell viability [32]: 5.99% | cell viability [33]: 4.42%

COc1cc(Nc2ncc(F)c(Nc3ccc4c(n3)NC(=O)C(C)(C)O4)n2)cc(OC)c1OC
cell viability [1]: 87.1% | cell viability [2]: 99% | cell viability [3]: 106% | cell viability [4]: 123% | cell viability [5]: 106% | cell viability [6]: 103% | cell viability [7]: 95.8% | cell viability [8]: 57.7% | cell viability [9]: 6.83% | cell viability [10]: 4.48% | cell viability [11]: 4.63% | cell viability [12]: 57.5% | cell viability [13]: 73% | cell viability [14]: 70.6% | cell viability [15]: 70.4% | cell viability [16]: 68.4% | cell viability [17]: 70.6% | cell viability [18]: 55% | cell viability [19]: 34.9% | cell viability [20]: 3.27% | cell viability [21]: 3.07% | cell viability [22]: 3.1% | cell viability [23]: 95% | cell viability [24]: 111% | cell viability [25]: 101% | cell viability [26]: 95.2% | cell viability [27]: 89.8% | cell viability [28]: 104% | cell viability [29]: 91.2% | cell viability [30]: 49.4% | cell viability [31]: 9.48% | cell viability [32]: 3.83% | cell viability [33]: 4.35%

CCN(CC)CCCCNc1nc2cc(Cl)c(Cl)cc2nc1-c1ccc(-c2cccs2)s1
cell viability [1]: 83.7% | cell viability [2]: 110% | cell viability [3]: 27.8% | cell viability [4]: 121% | cell viability [5]: 110% | cell viability [6]: 102% | cell viability [7]: 115% | cell viability [8]: 114% | cell viability [9]: 107% | cell viability [10]: 124% | cell viability [11]: 8.47% | cell viability [12]: 93.7% | cell viability [13]: 94.9% | cell viability [14]: 8.03% | cell viability [15]: 101% | cell viability [16]: 96.8% | cell viability [17]: 102% | cell viability [18]: 114% | cell viability [19]: 98.9% | cell viability [20]: 107% | cell viability [21]: 93.9% | cell viability [22]: 5.71% | cell viability [23]: 106% | cell viability [24]: 121% | cell viability [25]: 26.4% | cell viability [26]: 130% | cell viability [27]: 118% | cell viability [28]: 126% | cell viability [29]: 116% | cell viability [30]: 116% | cell viability [31]: 126% | cell viability [32]: 131% | cell viability [33]: 8.47%

O=C(Nc1cccc(Nc2ncc(Br)c(NCCc3cnc[nH]3)n2)c1)N1CCCC1
cell viability [1]: 77.4% | cell viability [2]: 78.4% | cell viability [3]: 79.3% | cell viability [4]: 72.1% | cell viability [5]: 67.4% | cell viability [6]: 47.5% | cell viability [7]: 32.7% | cell viability [8]: 17.4% | cell viability [9]: 9.22% | cell viability [10]: 5.65% | cell viability [11]: 1.1% | cell viability [12]: 87.7% | cell viability [13]: 77.9% | cell viability [14]: 80.5% | cell viability [15]: 75.9% | cell viability [16]: 69.1% | cell viability [17]: 41% | cell viability [18]: 21.1% | cell viability [19]: 8.73% | cell viability [20]: 3.21% | cell viability [21]: 1.59% | cell viability [22]: 1.07% | cell viability [23]: 82.5% | cell viability [24]: 62.9% | cell viability [25]: 71% | cell viability [26]: 64.2% | cell viability [27]: 66.9% | cell viability [28]: 38.6% | cell viability [29]: 26.6% | cell viability [30]: 12.8% | cell viability [31]: 7.16% | cell viability [32]: 3.89% | cell viability [33]: 1.39%

CCCCNc1cc(C(=O)O)cc([S+](N)(=O)[O-])c1Oc1ccccc1
cell viability [1]: 80.3% | cell viability [2]: 97.7% | cell viability [3]: 100% | cell viability [4]: 101% | cell viability [5]: 103% | cell viability [6]: 95.8% | cell viability [7]: 99.9% | cell viability [8]: 107% | cell viability [9]: 115% | cell viability [10]: 116% | cell viability [11]: 118% | cell viability [12]: 111% | cell viability [13]: 110% | cell viability [14]: 117% | cell viability [15]: 114% | cell viability [16]: 111% | cell viability [17]: 109% | cell viability [18]: 107% | cell viability [19]: 112% | cell viability [20]: 116% | cell viability [21]: 141% | cell viability [22]: 111% | cell viability [23]: 108% | cell viability [24]: 110% | cell viability [25]: 109% | cell viability [26]: 113% | cell viability [27]: 115% | cell viability [28]: 126% | cell viability [29]: 107% | cell viability [30]: 123% | cell viability [31]: 135% | cell viability [32]: 120% | cell viability [33]: 128%

OC[C@H]1O[C@H]([C@@H](F)[C@@H]1O)N2\C=C/C(=O)NC2=O
cell viability [1]: 106% | cell viability [2]: 42.5% | cell viability [3]: 111% | cell viability [4]: 109% | cell viability [5]: 108% | cell viability [6]: 117% | cell viability [7]: 122% | cell viability [8]: 112% | cell viability [9]: 90.8% | cell viability [10]: 109% | cell viability [11]: 106% | cell viability [12]: 93.2% | cell viability [13]: 113% | cell viability [14]: 110% | cell viability [15]: 101% | cell viability [16]: 90.1% | cell viability [17]: 105% | cell viability [18]: 112% | cell viability [19]: 97% | cell viability [20]: 93.5% | cell viability [21]: 91.2% | cell viability [22]: 95.9% | cell viability [23]: 105% | cell viability [24]: 48.6% | cell viability [25]: 99.8% | cell viability [26]: 91.6% | cell viability [27]: 96.4% | cell viability [28]: 102% | cell viability [29]: 99.1% | cell viability [30]: 90.7% | cell viability [31]: 74% | cell viability [32]: 100% | cell viability [33]: 87.5%
